1 substance from patent US20210220450A1, “TREATMENT OF AN IOP CONDITION” (The Research Foundation for The State University of New York, priority 2013, published 2021) can be followed below.

Series [1] has as its system sheep of the Coriedale breed. Briefly: Steroid-induced IOP elevation in sheep, tPA injected into the anterior chamber (Example 9). In kind it is in vivo. The method, then: Methods. Lyophilized tPA, obtained as Acetilyse® from Boehringer Ingelheim S. A. (Buenos Aires) containing arginine, was used. Five sheep of the Coriedale breed were selected. Initially all eyes received instillation of 1% prednisolone 3 times/day for 10 days to elevate their IOP from 10 mm Hg to about 23 mm Hg. Then, 0.0001 μg was injected into one of the eyes and its effect was followed for up to 55:00 hrs while the instillation of prednisolone continued in both eyes. The same protocol was implemented for the 0.001 and 0.01 μg amounts (after extended washout) in the contra lateral eyes. Arginine, which is associated with 0.01 ug tPA, was injected alone and had no effect.

Series [2] has as its system Mmp-2, Mmp-9, Mmp-13. Briefly: Mmp expression in protein treated PlatKO eyes (Example 14). The following applies: vs BSA treated eyes. In kind it is in vivo, mouse. On the procedure: Tissue collection and confirmation of transgene expression: After outflow facility determination in adenovirus treated mice, mCherry expression in the TM was determined in all AdPLAT and AdPLATNE injected eyes. The eyes were dissected on ice to isolate a rim of tissue containing the TM by removing most of the iris and ciliary body. […] After observation, dissected rims were immediately immersed in RNA stabilizing agent (RNAlater, Invitrogen by ThermoFisher Scientific, Waltham, Mass., USA) and frozen. For TM tissue collection following protein treatment, all eyes were flash frozen in liquid nitrogen and subsequently dissected on ice to obtain the angle ring containing the TM tissues as previously described^43. Dissected TM tissues were immersed in RNAlater solution and then snap-frozen and stored at −80° C. until RNA extraction.
RNA isolation and quantitative real time PCR: Tissue collected was pooled (four eyes) and homogenized in TRIzol reagent (Life Technologies, Carlsbad, Calif., USA). RNA was isolated per the manufacturer's instructions and resuspended in nuclease-free water. RNA concentration was determined with a Nanodrop ND-1000 Spectrophotometer (ThermoFisher Scientific, Waltham, Mass., USA). cDNA was synthesized by using High-Capacity cDNA Reverse Transcription Kit (Applied Biosystems, Waltham, Mass., USA) according to manufacturer's protocol. Quantitative real-time PCR (qRT-PCR) was performed by using Green-2-Go qPCR Mastermix-ROX (BioBasic, Amherst, N.Y., USA) on a QuantStudio 6 Flex thermal cycler (Applied Biosystems, Carlsbad, Calif., USA).
mRNA expression of sheep PLAT and mouse Mmp-2, Mmp-9, and Mmp-13 in angle ring tissues was determined. Primers were designed by using Primer-BLAST (https://www.ncbi.nlm.nih.gov/tools/primer-blast/index.cgi?LINK_LOC=BlastHome; in the public domain) and their specificity was confirmed by the presence of a single band of the expected size on agarose gel electrophoresis. […] The relative fold change was calculated by using the ΔΔCt method. […]

Series [3] has as its system MMP-2, MMP-9, MMP-13. Briefly: MMP expression in PA treated HTM cells (Examples 17, 18). The format is cell-based. The following applies: PA treated HTM cells.
The subject of series [4] is Mmp-2, Mmp-9, Mmp-13. Nature of the series: Mmp expression in Tg-MYOCY437H angle ring tissue (Example 19). In kind it is in vivo, mouse. The following applies: vs BSA treated eyes. On the procedure: Eyes were flash frozen in liquid nitrogen after outflow facility determination and subsequently dissected on ice to obtain the angle ring tissues containing the TM, as previously described (Kumar, Shah et al. 2013). Dissected TM tissues were immersed in RNAlater solution (Invitrogen, Waltham, Mass., USA) and then snap-frozen and stored at −80° C. until RNA extraction. Tissue collected was pooled (four eyes) and homogenized in TRIzol reagent for RNA isolation, per manufacturer's instructions (Life Technologies, Carlsbad, Calif., USA). RNA concentration was determined with a Nanodrop ND-1000 Spectrophotometer (Thermo Scientific, Wilmington, Del., USA). cDNA was synthesized by using High-Capacity cDNA Reverse Transcription Kit (Applied Biosystems, Waltham, Mass., USA) according to manufacturer's protocol. Quantitative real-time PCR (qRT-PCR) was performed by using Green-2-Go qPCR Mastermix-ROX (Bio Basic, Amherst, N.Y., USA) on a QuantStudio 6 Flex thermal cycler (Applied Biosystems, Carlsbad, Calif., USA). mRNA expression of Plat, Plau, Pai-1, Mmp-2, Mmp-9, and Mmp-13 in angle ring tissues was determined. Primers were designed by using Primer-BLAST (https://www.ncbi.nlm.nih.gov/tools/primer-blast/index.cgi?LINK_LOC=BlastHome; in the public domain); primer sequences are listed in Table 2. Primer specificity was confirmed by agarose gel electrophoresis and multiple-sized amplification products were absent on inspection of melting curves. Target mRNA expression values were normalized to the expression levels of Rps11 (ribosomal protein S11). The relative fold change was calculated by using the ΔΔCt method (Hu, Wang et al. 2015). Outliers identified via the Thompson Tau test were removed from analysis.

For the substance tissue plasminogen activator [tPA], the “effect on IOP” value in series [1] (0.0001 μg into the AC, IOP 23.0 mm Hg at 6:00 and 30:00 hrs) is “had no effect”; in series [1] (single dose of 1 μg of tPA injected intracamerally) it was “reduction in IOP”. Further, the IOP in series [1] (0.001 μg into the AC, 6:00 hr, from 23.1) was 18.6 mmHg; in series [1] (0.001 μg into the AC, 30:00 hr), 22.3 mm Hg; in series [1] (0.01 μg into the AC, 6:00 hrs, baseline 23.4), 14.2 mm Hg; in series [1] (0.01 μg into the AC, 30:00 hrs) it was 19.0 mm Hg; in series [1] (0.01 μg into the AC, 48:00 hrs), 20.9 mm Hg; in series [1] (0.01 μg into the AC, 55:00 hrs) it was 22.3 mm Hg. In addition, the Mmp-2 expression entry in the series with Mmp-2, Mmp-9, Mmp-13 [2] was “not significantly different”; in the series on Mmp-2, Mmp-9, Mmp-13 [4] (2 days), “no significant difference”; in the series on Mmp-2, Mmp-9, Mmp-13 [4] (5 days), “no significant difference”. Besides, the Mmp-9 expression result was “significant upregulation” with Mmp-2, Mmp-9, Mmp-13 [2]; “not detected” with Mmp-2, Mmp-9, Mmp-13 [4] (2 days); “higher” in the series on Mmp-2, Mmp-9, Mmp-13 [4] (5 days). For the same substance, the Mmp-13 expression entry was “significant upregulation” in the series with Mmp-2, Mmp-9, Mmp-13 [2]; “significantly higher” with Mmp-2, Mmp-9, Mmp-13 [4] (2 days); “significantly higher” in the series with Mmp-2, Mmp-9, Mmp-13 [4] (5 days). In the series with MMP-2, MMP-9, MMP-13 [3] (between treatments), the MMP-2 expression entry is given as “not significantly different”. Further, the “expression (FIG. 17C, MMP-9)” value with MMP-2, MMP-9, MMP-13 [3] (vs PA+BSA) is “significant upregulation”.
